Patent US20240423949A1, “APPLICATION OF SALVIANOLIC ACID B IN PREPARING ANTI-ROTAVIRUS PREPARATION” (GUANGDONG MEDICAL UNIVERSITY, priority 2023, published 2024)

Legend:
[1] = test system: RV structural protein VP6 gene expression; assay: Gene expression level of RV structural protein VP6 in RV infected MA104 cells (real time PCR); type: cell-based, rotavirus
Method: (1) In order to further verify whether salvianolic acid B has an inhibitory effect on RV synthesis, a drug group (MA104 cells after RV infection were treated with different concentrations of salvianolic acid B), a ribavirin group, a normal group, and an RV group were set up. The supernatant was removed and PBS rinse was performed twice. 1 mL of Trizol reagent was added to each well and allowed to stand for 5 minutes. After blowing the cells with a gun tip, they were collected in a 1.5 mL enzyme free EP tube. 200 μL of chloroform was add to the tube. After 15 seconds of vortex shock, the tube was placed at room temperature for 5 min, and centrifuged (4° C., 12000 r/min for 15 min). The centrifuged sample was divided into three layers, namely, the colorless upper layer, the white middle layer and the red lower layer. […]
Real time quantitative PCR was performed using SYBR Green I fluorescence labeling to detect the expression levels of VP6 in the drug group, ribavirin group, normal group, and RV group, SYBR® Premix Pro Taq HS qPCR Kit II reagent kit was adopted, and GAPDH was selected as an internal reference. In the experiment, a real-time fluorescent quantitative PCR amplification reaction system was prepared according to the following table with a dedicated Real-time PCR plate of Axygen, and the reaction solution was prepared on ice (the total reaction was is 10 μL).

[2] = test system: Wa strain rotavirus; assay: Direct inhibitory effect on RV (drug pre-mixed with virus, MA104 cells, MTT assay); type: cell-based
Method: Different concentrations of salvianolic acid B solution with 50TCID50 virus solution (virus with 20 μg/mL trypsin at 37° C. for 30 min), DMEM with 50TCID50 virus solution, ribavirin with 50TCID50 virus solution were mixed in equal volumes and incubated in a 5% CO2 incubator at 37° C. for 2 hours. The cells were rinsed twice with PBS and added to a 96-well culture plate of MA104 cells grown to monolayers, and for the normal cell control group, an equal volume of DMEM was added. After incubated at 37° C. and 5% CO2 for 2 h, the mixed solution was aspirated and the maintenance solution was added, with 100 μL per well. The 96-well plate was placed in a 5% CO2 incubator at 37° C. for continuous observation for 72 h and then detected by the MTT assay. A 1/10 volume of MTT solution was added to each well. After incubated for 3-4 h in the incubator, the 96-well plate was removed, the culture solution in the well was carefully aspirated, and 150 µL of DMSO was added to each well. The plate was shaken at a low speed for 10 min on a shaker to fully dissolve the crystal, and the absorbance was detected and recorded at a wavelength of 490 nm. The drug-to-virus inhibition rates were calculated and the experiment was repeated 3 times.
Virus inhibition rate (%)=(average A value of drug group−average A value of virus control group)/(average A value of normal cell control group−average A value of virus control group)×100%

[3] = test system: MA104 cells; assay: Toxicity of salvianolic acid B on MA104 cells (MTT assay); type: cell-based, Rhesus monkey; conditions: 72 h; for Toxicity to MA104 cells: concentration range 0-256 μM
Method: When the MA104 cells grew to monolayers, the cells were digested, centrifuged and resuspended, and the suspension was further diluted and then 10 μL was taken and counted on a blood cell counting plate, and the required cell volume was calculated. Cell plating was then performed in a 96-well plate with 100 μL of the cell suspension per well at a cell density of 8×10^4 per mL. Cells grown to monolayers were treated with different concentrations of salvianolic acid B for 72 h, and the toxicity of salvianolic acid B on MA104 cells was detected by MTT assay. 10 μL of MTT solution was added to each well, and the mixture was incubated in the incubator for 3-4 h. Then, the 96-well plate was taken out, and the culture solution in the well was carefully aspirated from the wells. 150 μL of DMSO was added to each well, and the mixture was shaken at a low speed for 10 min on a shaker to fully dissolve the crystal, and the absorbance was detected and recorded at a wavelength of 490 nm.
The formula for the relative cell survival rate is:
Cell survival rate={(Aexperimental group−Ablank)/(Acontrol group−Ablank)×100%}

[4] = test system: Wa strain rotavirus; assay: Anti-RV adsorption effect in MA104 cells (drug before virus, MTT assay); type: cell-based; conditions: 16-256 μM
Method: Salvianolic acid B solutions of different concentrations were added into a 96-well culture plate of MA104 cells grown into monolayers, wherein 4 wells were repeated for each concentration of the solution, with 100 μL per well. An equal volume of ribavirin was added to the positive control group, and only an equal volume of DMEM culture solution was added to both the normal cell control group and the virus control group, and same were placed in a 5% CO2 incubator at 37° C. for incubation for 2 h. […] 1/10 volume of MTT solution was added to each well, after being incubated for 3-4 h in the incubator, the 96-well plate was taken out, the culture solution in the well was carefully aspirated, 150 uL of DMSO was added to each well, and same was placed on a shaker and shaken at a low speed for 10 min, so that the crystal was fully dissolved; and the absorbance was detected and recorded at a wavelength of 490 nm. The drug-to-virus inhibition rates were calculated and the experiment was repeated 3 times. […]

[5] = test system: Wa strain rotavirus; assay: Anti-RV biosynthesis effect in MA104 cells (drug after virus, MTT assay); type: cell-based; conditions: 64-256 μM, 100 TCID50, 72 h
Method: 100 TCID50 virus solution (virus with 20 μg/mL trypsin at 37° C. for 30 min) was added to a 96-well culture plate of MA104 cells grown to monolayers, with 100 μL per well, and the cells were rinsed twice with PBS before addition. A normal cell control group was set, an equal volume of DMEM culture solution was added, then the 96-well plate was placed in a 5% CO2 incubator at 37° C. for incubation for 2 h, the virus solution was aspirated, different concentrations of salvianolic acid B and ribavirin were added, respectively, with 100 μL per well, and a virus control group was set and added with only a maintenance solution, with 100 μL per well. The 96-well plate was placed in a 5% CO2 incubator at 37° C. for incubation and continuous observation for 72 h and then detected by the MTT assay. A 1/10 volume of MTT solution was added to each well. After being incubated for 3-4 h in the incubator, the 96-well plate was removed, the culture solution in the well was carefully aspirated, and 150 μL of DMSO was added to each well. The plate was shaken at a low speed for 10 min on a shaker to fully dissolve the crystal, and the absorbance was detected and recorded at a wavelength of 490 nm. The drug-to-virus inhibition rates were calculated and the experiment was repeated 3 times. […]

Compound	Gene expression of VP6 compared to the RV group ([1]; ribavirin group)	Expression level of VP6 compared with the RV group ([1]; 64, 128 and 256 μM, dose-response correlation)	Direct inhibitory effect on RV (conclusion) ([2]; 16-256 μM)	inhibition at 16 µM ([2]; Rotavirus, MA104, 16 μM (first of five values over 16-256 μM), 50TCID50, 72 h, read-out: Inhibitory rate directly inhibiting RV) [%]	inhibition at 32 µM ([2]; Rotavirus, MA104, 32 μM (second of five values over 16-256 μM), 50TCID50, 72 h, read-out: Inhibitory rate directly inhibiting RV) [%]	inhibition at 64 µM ([2]; Rotavirus, MA104, 64 μM (third of five values over 16-256 μM), 50TCID50, 72 h, read-out: Inhibitory rate directly inhibiting RV) [%]	inhibition at 128 µM ([2]; Rotavirus, MA104, 128 μM (fourth of five values over 16-256 μM), 50TCID50, 72 h, read-out: Inhibitory rate directly inhibiting RV) [%]	inhibition at 256 µM ([2]; Rotavirus, MA104, 256 μM (fifth of five values over 16-256 μM), 50TCID50, 72 h, read-out: Inhibitory rate directly inhibiting RV) [%]	Cell survival rate ([3]; 512 μM, MA104 cells)	Toxicity to MA104 cells [3]	Toxicity to MA104 cells ([3]; listed as Salvianolic acid B)	Anti-RV adsorption effect (conclusion) [4]	Virus inhibition rate (anti-RV adsorption) ([4]; 100TCID50, 72 h)	Virus inhibition rate (anti-RV biosynthesis) [5]
NC(=O)c1ncn([C@@H]2O[C@H](CO)[C@@H](O)[C@H]2O)n1 [ribavirin, reference compound]	significantly reduced													
O=C(/C=C/c1ccc(O)c2c1[C@@H](C(=O)O[C@H](Cc1ccc(O)c(O)c1)C(=O)O)[C@H](c1ccc(O)c(O)c1)O2)O[C@H](Cc1ccc(O)c(O)c1)C(=O)O [salvianolic acid B, Salvianolic acid B]		significantly reduced	no direct inhibitory effect	14.2	15.2	16.5	15.8	12.7	below 95%	no obvious toxicity	no drug toxicity	no significant anti-RV adsorption effect	below 50%	higher than 50%
